# Measured values as given in ChEMBL document CHEMBL4308841, “Synthesis, in vitro antiproliferative activity, and kinase inhibitory effects of pyrazole-containing diarylureas and diarylamides” (Eur J Med Chem, 2018).
# Legend:
# SN12C = assay: Growth inhibition of human SN12C cells assessed as cell growth at 0.1 uM incubated for 48 hrs by sulforhodamine B assay relative to control; assay type: functional; details: read-out: Activity
# RXF 393 = assay: Growth inhibition of human RXF393 cells assessed as cell growth at 100 uM incubated for 48 hrs by sulforhodamine B assay relative to control; assay type: functional; details: RXF 393, 48 h, read-out: Activity
# NCI-H322M = assay: Growth inhibition of human NCI-H322M cells assessed as cell growth at 1 uM incubated for 48 hrs by sulforhodamine B assay relative to control; assay type: functional; details: read-out: Activity
# SR = assay: Growth inhibition of human SR cells assessed as cell growth at 1 uM incubated for 48 hrs by sulforhodamine B assay relative to control; assay type: functional; details: read-out: Activity
# OVCAR-4 = assay: Growth inhibition of human OVCAR4 cells assessed as cell growth at 0.01 uM incubated for 48 hrs by sulforhodamine B assay relative to control; assay type: functional; details: OVCAR-4, 48 h, read-out: Activity
# KM12 [1] = assay: Growth inhibition of human KM12 cells assessed as cell growth at 100 uM incubated for 48 hrs by sulforhodamine B assay relative to control; assay type: functional; details: KM12, 48 h, read-out: Activity
# T47D [2] = assay: Growth inhibition of human T47D cells assessed as cell growth at 0.1 uM incubated for 48 hrs by sulforhodamine B assay relative to control; assay type: functional; details: read-out: Activity
# HCT-116 = assay: Growth inhibition of human HCT116 cells incubated for 48 hrs by sulforhodamine B assay; assay type: functional, cell-based; details: HCT-116, 48 h
# ACHN = assay: Growth inhibition of human ACHN cells assessed as cell growth at 1 uM incubated for 48 hrs by sulforhodamine B assay relative to control; assay type: functional; details: read-out: Activity
# UACC-257 = assay: Growth inhibition of human UACC257 cells assessed as cell growth at 100 uM incubated for 48 hrs by sulforhodamine B assay relative to control; assay type: functional; details: UACC-257, 48 h, read-out: Activity
# SNB-19 [3] = assay: Growth inhibition of human SNB19 cells assessed as cell growth at 1 uM incubated for 48 hrs by sulforhodamine B assay relative to control; assay type: functional; details: SNB-19, 48 h, read-out: Activity
# MDA-MB-468 = assay: Growth inhibition of human MDA-MB-468 cells assessed as cell growth at 1 uM incubated for 48 hrs by sulforhodamine B assay relative to control; assay type: functional; details: MDA-MB-468, 48 h, read-out: Activity
# IGROV-1 = assay: Growth inhibition of human IGROV1 cells assessed as cell growth at 0.1 uM incubated for 48 hrs by sulforhodamine B assay relative to control; assay type: functional; details: IGROV-1, 48 h, read-out: Activity
# NCI-H226 = assay: Growth inhibition of human NCI-H226 cells assessed as cell growth at 0.01 uM incubated for 48 hrs by sulforhodamine B assay relative to control; assay type: functional; details: NCI-H226, 48 h, read-out: Activity
# UACC-62 = assay: Growth inhibition of human UACC62 cells assessed as cell growth at 1 uM incubated for 48 hrs by sulforhodamine B assay relative to control; assay type: functional; details: UACC-62, 48 h, read-out: Activity
# NCI-H23 [4] = assay: Growth inhibition of human NCI-H23 cells assessed as cell growth at 0.01 uM incubated for 48 hrs by sulforhodamine B assay relative to control; assay type: functional; details: NCI-H23, 48 h, read-out: Activity
# SNB-19 [5] = assay: Growth inhibition of human SNB19 cells assessed as cell growth at 0.1 uM incubated for 48 hrs by sulforhodamine B assay relative to control; assay type: functional; details: SNB-19, 48 h, read-out: Activity
# NCI-H23 [6] = assay: Growth inhibition of human NCI-H23 cells incubated for 48 hrs by sulforhodamine B assay; assay type: functional, cell-based; details: NCI-H23, 48 h
# KM12 [7] = assay: Growth inhibition of human KM12 cells incubated for 48 hrs by sulforhodamine B assay; assay type: functional, cell-based; details: KM12, 48 h
# A498 = assay: Growth inhibition of human A498 cells assessed as cell growth at 0.01 uM incubated for 48 hrs by sulforhodamine B assay relative to control; assay type: functional; details: A498, 48 h, read-out: Activity
# SF-539 = assay: Growth inhibition of human SF539 cells assessed as cell growth at 0.01 uM incubated for 48 hrs by sulforhodamine B assay relative to control; assay type: functional; details: SF-539, 48 h, read-out: Activity
# MOLT-4 = assay: Growth inhibition of human MOLT4 cells assessed as cell growth at 0.01 uM incubated for 48 hrs by sulforhodamine B assay relative to control; assay type: functional; details: MOLT-4, 48 h, read-out: Activity
# HCC 2998 = assay: Growth inhibition of human HCC2998 cells assessed as cell growth at 100 uM incubated for 48 hrs by sulforhodamine B assay relative to control; assay type: functional; details: HCC 2998, 48 h, read-out: Activity
# NCI-H460 = assay: Growth inhibition of human NCI-H460 cells assessed as cell growth at 100 uM incubated for 48 hrs by sulforhodamine B assay relative to control; assay type: functional; details: NCI-H460, 48 h, read-out: Activity
# M14 = assay: Growth inhibition of human M14 cells assessed as cell growth at 1 uM incubated for 48 hrs by sulforhodamine B assay relative to control; assay type: functional; details: M14, 48 h, read-out: Activity
# MDA-MB-435 = assay: Growth inhibition of human MDA-MB-435 cells assessed as cell growth at 0.1 uM incubated for 48 hrs by sulforhodamine B assay relative to control; assay type: functional; details: MDA-MB-435, 48 h, read-out: Activity
# HOP-62 [8] = assay: Growth inhibition of human HOP62 cells incubated for 48 hrs by sulforhodamine B assay; assay type: functional, cell-based; details: HOP-62, 48 h
# TK-10 = assay: Growth inhibition of human TK10 cells assessed as cell growth at 10 uM incubated for 48 hrs by sulforhodamine B assay relative to control; assay type: functional; details: TK-10, 48 h, read-out: Activity
# HOP-62 [9] = assay: Growth inhibition of human HOP62 cells assessed as cell growth at 0.1 uM incubated for 48 hrs by sulforhodamine B assay relative to control; assay type: functional; details: HOP-62, 48 h, read-out: Activity
# T47D [10] = assay: Growth inhibition of human T47D cells incubated for 48 hrs by sulforhodamine B assay; assay type: functional, cell-based
# [11] = read-out: LC50 (the source's name)
# [12] = read-out: pLC50 (the source's name) (converted)
compound,measurement,setting,value
COc1cc(Cl)cc(-c2nn(-c3cccc(NC(=O)c4ccc(N5CCOCC5)c(C(F)(F)F)c4)c3)cc2-c2ccncc2)c1,growth at 0.1 µM,SN12C,95%
same,growth at 100 µM,RXF 393,-10%
same,growth at 1 µM,NCI-H322M,55%
same,growth at 1 µM,SR,52%
same,growth at 0.01 µM,OVCAR-4,99%
same,growth at 100 µM,KM12 [1],20%
same,growth at 0.1 µM,T47D [2],95%
same,IC50,HCT-116,9.64 µM
same,GI50,HCT-116; read-out: GI50,9.54 µM
same,CC50,HCT-116; [11],> 100 µM
same,TGI,HCT-116; read-out: TGI,> 100 µM
same,GI50,HCT-116; read-out: pGI50 (converted),9.55 µM
same,CC50,HCT-116; [12],> 100 µM
same,TGI,HCT-116; read-out: pTGI (converted),> 100 µM
same,growth at 1 µM,ACHN,58%
same,growth at 100 µM,UACC-257,-18%
same,growth at 1 µM,SNB-19 [3],92%
same,growth at 1 µM,MDA-MB-468,56%
same,growth at 0.1 µM,IGROV-1,100%
same,growth at 0.01 µM,NCI-H226,94%
same,growth at 1 µM,UACC-62,84%
same,growth at 0.01 µM,NCI-H23 [4],92%
same,growth at 0.1 µM,SNB-19 [5],94%
same,GI50,NCI-H23 [6]; read-out: GI50,3.07 µM
same,LC50,NCI-H23 [6]; read-out: LC50,> 100 µM
same,TGI,NCI-H23 [6]; read-out: TGI,> 100 µM
same,GI50,NCI-H23 [6]; read-out: pGI50 (converted),30.9 µM
same,LC50,NCI-H23 [6]; read-out: pLC50 (converted),> 100 µM
same,TGI,NCI-H23 [6]; read-out: pTGI (converted),> 100 µM
same,GI50,KM12 [7]; read-out: GI50,5.38 µM
same,CC50,KM12 [7]; [11],> 100 µM
same,TGI,KM12 [7]; read-out: TGI,> 100 µM
same,GI50,KM12 [7]; read-out: pGI50 (converted),5.37 µM
same,CC50,KM12 [7]; [12],> 100 µM
same,TGI,KM12 [7]; read-out: pTGI (converted),> 100 µM
same,growth at 0.01 µM,A498,59%
same,growth at 0.01 µM,SF-539,99%
same,growth at 0.01 µM,MOLT-4,100%
same,growth at 100 µM,HCC 2998,-5%
same,growth at 100 µM,NCI-H460,5%
same,growth at 1 µM,M14,58%
same,growth at 0.1 µM,MDA-MB-435,98%
same,GI50,HOP-62 [8]; read-out: GI50,6.78 µM
same,CC50,HOP-62 [8]; [11],> 100 µM
same,TGI,HOP-62 [8]; read-out: TGI,> 100 µM
same,GI50,HOP-62 [8]; read-out: pGI50 (converted),63.1 µM
same,CC50,HOP-62 [8]; [12],> 100 µM
same,TGI,HOP-62 [8]; read-out: pTGI (converted),> 100 µM
same,growth at 10 µM,TK-10,90.6%
same,growth at 0.1 µM,HOP-62 [9],105%
same,GI50,T47D [10]; read-out: GI50,1.04 µM
same,CC50,T47D [10]; [11],> 100 µM
same,TGI,T47D [10]; read-out: TGI,> 100 µM
same,GI50,T47D [10]; read-out: pGI50 (converted),10.5 µM
same,CC50,T47D [10]; [12],> 100 µM
same,TGI,T47D [10]; read-out: pTGI (converted),> 100 µM
COc1cc(Cl)cc(-c2nn(-c3cccc(NC(=O)Nc4cc(C(F)(F)F)cc(C(F)(F)F)c4)c3)cc2-c2ccncc2)c1,growth at 0.1 µM,SN12C,97%
same,growth at 100 µM,RXF 393,-92%
same,growth at 1 µM,NCI-H322M,49%
same,growth at 1 µM,SR,28%
same,growth at 0.01 µM,OVCAR-4,93%
same,growth at 100 µM,KM12 [1],-83%
same,growth at 0.1 µM,T47D [2],96%
same,IC50,HCT-116,0.33 µM
same,GI50,HCT-116; read-out: GI50,0.332 µM
same,TGI,HCT-116; read-out: TGI,1.27 µM
same,GI50,HCT-116; read-out: pGI50 (converted),0.331 µM
same,CC50,HCT-116; [12],6.61 µM
same,TGI,HCT-116; read-out: pTGI (converted),1.26 µM
same,growth at 1 µM,ACHN,17%
same,growth at 100 µM,UACC-257,-88%
same,growth at 1 µM,SNB-19 [3],28%
same,growth at 1 µM,MDA-MB-468,15%
same,growth at 0.1 µM,IGROV-1,104%
same,growth at 0.01 µM,NCI-H226,101%
same,growth at 1 µM,UACC-62,18%
same,growth at 0.01 µM,NCI-H23 [4],94%
same,growth at 0.1 µM,SNB-19 [5],87%
same,IC50,NCI-H23 [6],0.33 µM
same,GI50,NCI-H23 [6]; read-out: GI50,0.328 µM
same,LC50,NCI-H23 [6]; read-out: LC50,0.05 µM
same,TGI,NCI-H23 [6]; read-out: TGI,1.6 µM
same,GI50,NCI-H23 [6]; read-out: pGI50 (converted),0.331 µM
same,LC50,NCI-H23 [6]; read-out: pLC50 (converted),50.1 µM
same,TGI,NCI-H23 [6]; read-out: pTGI (converted),1.58 µM
same,IC50,KM12 [7],0.51 µM
same,GI50,KM12 [7]; read-out: GI50,0.606 µM
same,CC50,KM12 [7]; [11],0.0279 µM
same,TGI,KM12 [7]; read-out: TGI,2.75 µM
same,GI50,KM12 [7]; read-out: pGI50 (converted),0.501 µM
same,CC50,KM12 [7]; [12],28.2 µM
same,TGI,KM12 [7]; read-out: pTGI (converted),2.75 µM
same,growth at 0.01 µM,A498,64%
same,growth at 0.01 µM,SF-539,100%
same,growth at 0.01 µM,MOLT-4,94%
same,growth at 100 µM,HCC 2998,-70%
same,growth at 100 µM,NCI-H460,-84%
same,growth at 1 µM,M14,25%
same,growth at 0.1 µM,MDA-MB-435,98%
same,IC50,HOP-62 [8],0.65 µM
same,GI50,HOP-62 [8]; read-out: GI50,0.648 µM
same,CC50,HOP-62 [8]; [11],7.14 µM
same,TGI,HOP-62 [8]; read-out: TGI,2.39 µM
same,GI50,HOP-62 [8]; read-out: pGI50 (converted),0.646 µM
same,CC50,HOP-62 [8]; [12],7.08 µM
same,TGI,HOP-62 [8]; read-out: pTGI (converted),2.4 µM
same,growth at 10 µM,TK-10,30.3%
same,growth at 0.1 µM,HOP-62 [9],93%
same,IC50,T47D [10],0.39 µM
same,GI50,T47D [10]; read-out: GI50,0.39 µM
same,CC50,T47D [10]; [11],> 100 µM
same,TGI,T47D [10]; read-out: TGI,4.16 µM
same,GI50,T47D [10]; read-out: pGI50 (converted),0.389 µM
same,CC50,T47D [10]; [12],> 100 µM
same,TGI,T47D [10]; read-out: pTGI (converted),4.17 µM
